Patent US20060112494A1, “Method of protecting an animal skin product from metalloproteinase activity” (priority 2004, published 2006)
Read-outs that look alike come from different tables or passages of the source.

Columns and labels:
Pseudomonas fluorescens = system: Pseudomonas fluorescens
Protocol: (§1) Nutrient agar amended with Azocoll (a substrate made up of insoluble particles of collagen impregnated with a bright azo dye) was used as the test medium to study collagenase activity. The nutrient agar was prepared and autoclaved and then was cooled to 55° C. Azocol was added to give a final concentration of 0.5%. […] Using a sterile spatula or cork-borer, the middle portion of each plate of about the size of a United States quarter, was scooped out. Fresh nutrient agar-azocoll medium containing no inhibitor was added to replace the scooped out portion of the plate. […] The bacteria were grown overnight on nutrient agar. A suspension of each culture was made in sterile water and used to inoculate the middle portion of each plate. The treated samples were incubated at 30° C. and evaluated after 24 hours, 2 days and 7 days for collagenase activity and also for the growth of the bacteria. The test cultures secreted collagenase into the medium as they grew to degrade the collagen in the azocoll medium, and collagenase activity was determined by visual inspection of the clear zone around the bacteria. All % are by weight percent of the active ingredient.

Aeromonas salmonicida = system: Aeromonas salmonicida; parameters: key to the marks not given beside the values; conditions: for Growth/Days 1: day 1; for Growth/Days 2: day 2; for Growth/Days 7: day 7
Protocol: as §1

collagenase [1] = system: collagenase
collagenase [2] = conditions: for Collagenase Activity/Days 2: day 2; for Collagenase Activity/Days 7: day 7; for Collagenase Activity/Days 1: day 1
[3] = Conc. 1.8%, column day 1, footnote d: data collected on day 2
[4] = Conc. 1.8%, column day 2, footnote e: data collected on day 3

**Q.** Which results are given for O=C(O)C[C@H](NCCN[C@@H](CC(=O)O)C(=O)O)C(=O)O [Na3EDDS, S,S′-ethylenediamine disuccinic acid]?
**A.** Growth/Days 1 (Pseudomonas fluorescens; Conc. 0.1%, day 1): ++++; Growth/Days 2 (Pseudomonas fluorescens; Conc. 0.1%, day 2): ++++; Growth/Days 7 (Pseudomonas fluorescens; Conc. 0.1%, day 7): ++++; Growth/Days 1 (Pseudomonas fluorescens; Conc. 0.2%, day 1): ++++; Growth/Days 2 (Pseudomonas fluorescens; Conc. 0.2%, day 2): ++++; Growth/Days 7 (Pseudomonas fluorescens; Conc. 0.2%, day 7): ++++; Growth/Days 1 (Pseudomonas fluorescens; Conc. 0.3%, day 1): ++++; Growth/Days 2 (Pseudomonas fluorescens; Conc. 0.3%, day 2): ++++; Growth/Days 7 (Pseudomonas fluorescens; Conc. 0.3%, day 7): ++++; Growth/Days 1 (Pseudomonas fluorescens; Conc. 0.4%, day 1): ++++; Growth/Days 2 (Pseudomonas fluorescens; Conc. 0.4%, day 2): ++++; Growth/Days 7 (Pseudomonas fluorescens; Conc. 0.4%, day 7): ++++; Growth/Days 1 (Pseudomonas fluorescens; Conc. 0.5%, day 1): ++++; Growth/Days 2 (Pseudomonas fluorescens; Conc. 0.5%, day 2): ++++; Growth/Days 7 (Pseudomonas fluorescens; Conc. 0.5%, day 7): ++++; Growth/Days 1 (Pseudomonas fluorescens; Conc. 0.6%, day 1): ++++; Growth/Days 2 (Pseudomonas fluorescens; Conc. 0.6%, day 2): ++++; Growth/Days 7 (Pseudomonas fluorescens; Conc. 0.6%, day 7): ++++; Growth/Days 1 (Pseudomonas fluorescens; Conc. 0.7%, day 1): ++++; Growth/Days 2 (Pseudomonas fluorescens; Conc. 0.7%, day 2): ++++; Growth/Days 7 (Pseudomonas fluorescens; Conc. 0.7%, day 7): ++++; Growth/Days 1 (Pseudomonas fluorescens; Conc. 0.8%, day 1): ++++; Growth/Days 2 (Pseudomonas fluorescens; Conc. 0.8%, day 2): ++++; Growth/Days 7 (Pseudomonas fluorescens; Conc. 0.8%, day 7): ++++; Growth/Days 1 (Pseudomonas fluorescens; Conc. 0.9%, day 1): ++++; Growth/Days 2 (Pseudomonas fluorescens; Conc. 0.9%, day 2): ++++; Growth/Days 7 (Pseudomonas fluorescens; Conc. 0.9%, day 7): ++++; Growth/Days 1 (Pseudomonas fluorescens; Conc. 1%, day 1): ++++; Growth/Days 2 (Pseudomonas fluorescens; Conc. 1%, day 2): ++++; Growth/Days 7 (Pseudomonas fluorescens; Conc. 1%, day 7): ++++; Growth/Days 1 (Pseudomonas fluorescens; Conc. 1.3%, day 1): ++++; Growth/Days 2 (Pseudomonas fluorescens; Conc. 1.3%, day 2): ++++; Growth/Days 7 (Pseudomonas fluorescens; Conc. 1.3%, day 7): ++++; Growth/Days 1 (Pseudomonas fluorescens; Conc. 1.5%, day 1): ++++; Growth/Days 2 (Pseudomonas fluorescens; Conc. 1.5%, day 2): ++++; Growth/Days 7 (Pseudomonas fluorescens; Conc. 1.5%, day 7): ++++; Growth/Days 1 (Pseudomonas fluorescens; [3]): ++++^d; Growth/Days 2 (Pseudomonas fluorescens; [4]): ++++^e; Growth/Days 7 (Pseudomonas fluorescens; Conc. 1.8%, day 7 (footnote f)): ++++^f; Growth/Days 1 (Aeromonas salmonicida; Conc. 0.2%): ++++; Growth/Days 2 (Aeromonas salmonicida; Conc. 0.2%): ++++; Growth/Days 7 (Aeromonas salmonicida; Conc. 0.2%): ++++; Growth/Days 1 (Aeromonas salmonicida; Conc. 0.5%): ++++; Growth/Days 2 (Aeromonas salmonicida; Conc. 0.5%): ++++; Growth/Days 7 (Aeromonas salmonicida; Conc. 0.5%): ++++; Growth/Days 1 (Aeromonas salmonicida; Conc. 0.7%): ++++; Growth/Days 2 (Aeromonas salmonicida; Conc. 0.7%): ++++; Growth/Days 7 (Aeromonas salmonicida; Conc. 0.7%): ++++; Growth/Days 1 (Aeromonas salmonicida; Conc. 1%): ++++; Growth/Days 2 (Aeromonas salmonicida; Conc. 1%): ++++; Growth/Days 7 (Aeromonas salmonicida; Conc. 1%): ++++; Growth/Days 1 (Aeromonas salmonicida; Conc. 1.2%): ++++; Growth/Days 2 (Aeromonas salmonicida; Conc. 1.2%): ++++; Growth/Days 7 (Aeromonas salmonicida; Conc. 1.2%): ++++; Growth/Days 1 (Aeromonas salmonicida; Conc. 1.3%): ++++; Growth/Days 2 (Aeromonas salmonicida; Conc. 1.3%): ++++; Growth/Days 7 (Aeromonas salmonicida; Conc. 1.3%): ++++; Growth/Days 1 (Aeromonas salmonicida; Conc. 1.5%): ++++; Growth/Days 2 (Aeromonas salmonicida; Conc. 1.5%): ++++; Growth/Days 7 (Aeromonas salmonicida; Conc. 1.5%): ++++; Growth/Days 1 (Aeromonas salmonicida; Conc. 1.8%): +++; Growth/Days 2 (Aeromonas salmonicida; Conc. 1.8%): ++++; Growth/Days 7 (Aeromonas salmonicida; Conc. 1.8%): ++++; Growth/Days 1 (Aeromonas salmonicida; Conc. 2%): ++; Growth/Days 2 (Aeromonas salmonicida; Conc. 2%): +++; Growth/Days 7 (Aeromonas salmonicida; Conc. 2%): +++; Collagenase Activity/Days 1 (collagenase [1]; Conc. 0.1%, day 1): ++++; Collagenase Activity/Days 2 (collagenase [1]; Conc. 0.1%, day 2): ++++; Collagenase Activity/Days 7 (collagenase [1]; Conc. 0.1%, day 7): ++++; Collagenase Activity/Days 2 (collagenase [1]; Conc. 0.2%, day 2): ++++; Collagenase Activity/Days 7 (collagenase [1]; Conc. 0.2%, day 7): ++++; Collagenase Activity/Days 1 (collagenase [1]; Conc. 0.3%, day 1): 0; Collagenase Activity/Days 2 (collagenase [1]; Conc. 0.3%, day 2): +++; Collagenase Activity/Days 7 (collagenase [1]; Conc. 0.3%, day 7): ++++; Collagenase Activity/Days 1 (collagenase [1]; Conc. 0.4%, day 1): 0; Collagenase Activity/Days 2 (collagenase [1]; Conc. 0.4%, day 2): ++; Collagenase Activity/Days 7 (collagenase [1]; Conc. 0.4%, day 7): ++++; Collagenase Activity/Days 1 (collagenase [1]; Conc. 0.5%, day 1): 0; Collagenase Activity/Days 7 (collagenase [1]; Conc. 0.5%, day 7): ++++; Collagenase Activity/Days 1 (collagenase [1]; Conc. 0.6%, day 1): 0; Collagenase Activity/Days 2 (collagenase [1]; Conc. 0.6%, day 2): 0; Collagenase Activity/Days 7 (collagenase [1]; Conc. 0.6%, day 7): +; Collagenase Activity/Days 1 (collagenase [1]; Conc. 0.7%, day 1): 0; Collagenase Activity/Days 1 (collagenase [1]; Conc. 0.8%, day 1): 0; Collagenase Activity/Days 2 (collagenase [1]; Conc. 0.8%, day 2): 0; Collagenase Activity/Days 7 (collagenase [1]; Conc. 0.8%, day 7): 0; Collagenase Activity/Days 1 (collagenase [1]; Conc. 0.9%, day 1): 0; Collagenase Activity/Days 2 (collagenase [1]; Conc. 0.9%, day 2): 0; Collagenase Activity/Days 7 (collagenase [1]; Conc. 0.9%, day 7): 0; Collagenase Activity/Days 1 (collagenase [1]; Conc. 1%, day 1): 0; Collagenase Activity/Days 1 (collagenase [1]; Conc. 1.3%, day 1): 0; Collagenase Activity/Days 2 (collagenase [1]; Conc. 1.3%, day 2): 0; Collagenase Activity/Days 1 (collagenase [1]; Conc. 1.5%, day 1): 0; Collagenase Activity/Days 2 (collagenase [1]; Conc. 1.5%, day 2): 0; Collagenase Activity/Days 7 (collagenase [1]; Conc. 1.5%, day 7): 0; Collagenase Activity/Days 1 (collagenase [1]; [3]): 0^d; Collagenase Activity/Days 2 (collagenase [1]; [4]): 0^e; Collagenase Activity/Days 7 (collagenase [1]; Conc. 1.8%, day 7 (footnote f)): 0^f; performance as collagenase inhibitors (summary in words) (collagenase [1]; collagenase produced by the bacteria studied, Table 1): performed very well as collagenase inhibitors; Collagenase Activity/Days 2 (collagenase [2]; Conc. 0.2%): ++++; Collagenase Activity/Days 7 (collagenase [2]; Conc. 0.2%): ++++; Collagenase Activity/Days 1 (collagenase [2]; Conc. 0.5%): 0; Collagenase Activity/Days 7 (collagenase [2]; Conc. 0.5%): ++++; Collagenase Activity/Days 1 (collagenase [2]; Conc. 0.7%): 0; Collagenase Activity/Days 1 (collagenase [2]; Conc. 1%): 0; Collagenase Activity/Days 1 (collagenase [2]; Conc. 1.2%): 0; Collagenase Activity/Days 2 (collagenase [2]; Conc. 1.2%): +; Collagenase Activity/Days 7 (collagenase [2]; Conc. 1.2%): ++++; Collagenase Activity/Days 1 (collagenase [2]; Conc. 1.3%): 0; Collagenase Activity/Days 2 (collagenase [2]; Conc. 1.3%): 0; Collagenase Activity/Days 1 (collagenase [2]; Conc. 1.5%): 0; Collagenase Activity/Days 2 (collagenase [2]; Conc. 1.5%): 0; Collagenase Activity/Days 7 (collagenase [2]; Conc. 1.5%): 0; Collagenase Activity/Days 1 (collagenase [2]; Conc. 1.8%): 0; Collagenase Activity/Days 2 (collagenase [2]; Conc. 1.8%): 0; Collagenase Activity/Days 7 (collagenase [2]; Conc. 1.8%): 0; Collagenase Activity/Days 1 (collagenase [2]; Conc. 2%): 0; Collagenase Activity/Days 2 (collagenase [2]; Conc. 2%): 0; Collagenase Activity/Days 7 (collagenase [2]; Conc. 2%): 0; performance as collagenase inhibitors (summary in words) (collagenase [2]; collagenase produced by the bacteria studied, Table 2): performed very well as collagenase inhibitors
